Reference: US20250275993A1, “GLYCOSYLATION INHIBITORS AS THERAPEUTICS FOR STROKE” (The Regents of the University of California, priority 2022, published 2025)

Assays:
[1] = system: ERK and AKT; assay: Western blot of ERK and AKT activation in HUVEC and hDMVECs; type: cell-based, human; conditions: 40 μM
Experimental: Cells were allowed to reach-80% confluency in 12-well plates. […] At various time points, plates were taken out of the incubator and kept on ice. Cell monolayers were first washed once with ice-cold PBS before lysis with 250 μI of Pierce RIPA buffer (ThermoFisher Scientific, Rockford, IL) or use 50 mM Tris-HCl (pH 7.6), 150 mM NaCl, 10% Glycerol, 1% NP-40 containing protease/Phosphatase inhibitor cocktail (100×) (Cell signaling, #5872). Lysates were collected and mixed with 4× Bolt LDS Sample Buffer (Novex, Carlsbad, CA) in the presence of Halt protease inhibitors and phosphatase inhibitor cocktail (ThermoFisher scientific, #NP0007). The samples were subjected to SDS-PAGE (Bolt 4-12% Bis-Tris Plus, Invitrogen) using Bolt MES SDS running buffer or NuPAGE 3-8% Tris-Acetate gel using Tris-Acetate SDS running buffer (Novex). HUVECs (passage 6-8) were plated in EBM-2 basal medium (Lonza) with 0.2% FBS. Following overnight culture, cells were serum-starved in EBM-2 medium for 4 hrs prior to treatment with 50 ng/ml of VEGF165 or vehicle controls for various lengths. Equal amounts of protein lysates were analyzed by SDS-PAGE and blotted with the indicated antibodies. Proteins were transferred using Tris-Glycine buffer with 20% Methanol (Proteonomics grade) (Apex BioResearch Products). […]

[2] = system: N-linked glycans from BCECs; assay: N-glycan analysis of BCECs; type: cell-based, bovine
Experimental: As soon as BCECs reached about 80% confluency, they were washed twice with phosphate buffered saline (PBS, Sigma) and harvested by scraping. The cells were pelleted by centrifugation at 300 g for 3 mins and washed once with cold PBS. Cells were homogenized and total protein was measured. All subsequent analysis was based on known protein amount.
N-linked glycans were removed from glycoprotein samples using PNGase-F kit (New England BioLabs, P0705S). Briefly, 300 μg of protein sample was reconstituted in 180 μl UltraPure water. 20 μl of 10× denaturing buffer was added and boiled using 100° C. water bath for 14 mins. Samples were cooled down to room temperature and centrifuged at 2700 g for 1 min. Subsequently, 50 μl 10×NP-40 was added and samples were kept at room temperature for 30 mins with vortexing at 5 min interval, followed by adding 25 μL of 10× reaction buffer and mixing thoroughly. 5 μl PNGaseF (2500 U) was then added to the samples and mixed gently. Samples were incubated at 37° C. for 16 hrs. Released N-glycans were purified using solid phase extraction method. […] The data was collected using the Dionex ICS-3000 HPLC system with Ultimate 3000 fluorescence detector (Dionex) set at Acx 330 nm at Atm 420 nm with sensitivity 7. […]

[3] = system: BCECs; assay: Cellular uptake of ManN and conversion to ManN-6P (HPAEC-PAD); type: in vitro ADME, bovine
[4] = system: HUVEC; assay: HUVEC proliferation assay; type: cell-based, human
Experimental: Proliferation assays with BCECs and BRECs were performed. Log-phase growing BCECs or BRECs (passage <10) were trypsinized, re-suspended and seeded in 96-well plates (no coating) in low-glucose DMEM supplemented with 10% bovine calf serum, 2 mM glutamine, and antibiotics (growth medium), at a density of 1200-1500 cells per well in 200 μl volume. All reagents were added at the indicated final concentrations. After 3-6 days, cells were incubated with AlamarBlue for 4 hrs. Fluorescence was measured at 530 nm excitation wavelength and 590 nm emission wavelength. The experiments were repeated at least three times. To create a hypoxic condition, cells were placed in a hypoxia incubator with a mixture of gas consisting of 1% O2, 5% CO2 and 94% N2. On each 96-well plate, untreated and VEGF-treated (10/ng/ml) wells were included to monitor plate-to-plate variations. 20% methanol or 0.05% DMSO served as negative controls. […] Human RMVECs and human adult DMVECs were split into Gelatin-coated 96 wells (2000 cells per well) in low glucose DMEM containing 10% FBS. 1200 cells/well was set up for proliferation assay in low glucose media containing 0.5% FBS. Data was collected at day 4 or 5. HUVEC (p7-10) were grown on gelatin-coated plate until it reached 70-80% confluency.
On the day of the assay, cells were dissociated with 0.05% trypsin, which was neutralized with 0.5% FBS-containing EBM. Cells were briefly spun and then re-suspended in 0.5% FBS-media. Cells were counted and plated in 96-well, 1000 cells/well. Triplicate wells were used for each treatment. Data were collected at day 3, and then cells were fixed in 4% paraformaldehyde for 15 min before adding crystal violet. Cell-covered areas were quantified after taking pictures by Image J software.

O=C1N[C@@H]2[C@@H](O)[C@@H](O)[C@H](O)[C@@H](CO)N2C1=O [Kif, Kifunensine, reference compound]
activation of ERK and AKT in human ECs by glycosylation inhibitors [1]: significantly activate ERK and AKT

N[C@H](C=O)[C@@H](O)[C@H](O)[C@H](O)CO [ManN, 2-Amino-2-deoxy-D-mannose]
Man-5 and Man-7 content ([2]; 40 μM ManN): significant early phase accumulation
Man-6, Man-8 and Man-9 in total oligomannose N-glycan content ([2]; 40 μM ManN vs untreated control): significant time-dependent reduction
incorporation of ManN in N-glycans ([3]; BCECs): No incorporation
ManN detected in cell lysate ([3]; BCECs treated with 400 μM ManN for 2 hours): 0.66 nmol in 1 mg cell lysate
toxicity on HUVEC ([4]; 5 mM ManN): minimal toxicity
HUVEC growth, ManN by itself ([4]; ManN alone): stimulated
additivity with VEGF on HUVEC proliferation ([4]; with VEGF): dose-dependent additivity with VEGF
